Experimental data from patent US7018641B1, “Materials and methods for the control of plant pathogens” (priority 2000, dated 2006).

Experiments:
Ralstonia solanacearum [1] = format: cell-based
Ralstonia solanacearum [2] = format: cell-based; remark: listed apart in the source

With `CC(C)=CCC/C(C)=C/CO` [Geraniol, geraniol] the “reduction of population of Ralstonia solanacearum” value (Ralstonia solanacearum [1]; compared to untreated control) was 89.5% and the volatile bactericidal activity (Ralstonia solanacearum [1]; in words) was “volatile bactericidal activity”.
`Cc1ccc(C(C)C)c(O)c1` [Thymol, thymol] was tested, and the “inhibition of the development of R. solanacearum colonies” value (Ralstonia solanacearum [2]; 100 μg/ml concentration, FIG. 2) was “entirely inhibited” and the “efficacy against Rs” value (Ralstonia solanacearum [2]; tested in vitro and in greenhouse, vapor effect for the oils) was “effective”.
